Assay results from patent US9375005B2, “5-halogenopyrazole indanyl carboxamides” (BAYER CROPSCIENCE AG, priority 2012, dated 2016).

Assays:
Alternaria brassicae = test: In vivo preventive test on Alternaria brassicae (leaf spot on radish); conditions: dose 500 ppm; radish plants sprayed 24 h before contamination; grading 6 days after contamination vs control plants
Experimental: Radish plants (“Pernod Clair” variety), sown in starter cups on a 50/50 peat soil-pozzolana substrate and grown at 17° C., are treated at the cotyledon stage by spraying with the active ingredient prepared as described above. Plants, used as controls, are treated with the mixture of acetone/tween/DMSO/water not containing the active material. After 24 hours, the plants are contaminated by spraying the cotyledons with an aqueous suspension of Alternaria brassicae spores (50 000 spores per ml). The spores are collected from a 15-day-old culture. […] Grading (% of efficacy) is carried out 6 days after the contamination, in comparison with the control plants.

Pyrenophora teres = test: In vivo preventive test on Pyrenophora teres (net blotch on barley); conditions: dose 500 ppm; barley plants sprayed 24 h before contamination; grading 14 days after contamination
Experimental: Barley plants (“Plaisant” variety), sown in starter cups on a 50/50 peat soil-pozzolana substrate and grown at 22° C., are treated at the 1-leaf stage (10 cm height) by spraying with the active ingredient prepared as described above. Plants, used as controls, are treated with the mixture of acetone/tween/DMSO/water not containing the active material. After 24 hours, the plants are contaminated by spraying the leaves with an aqueous suspension of Pyrenophora teres spores (12 000 spores per ml). The spores are collected from a 12-day-old culture. […] Grading (% of efficacy) is carried out 14 days after the contamination, in comparison with the control plants.

Sphaerotheca fuliginea = test: In vivo preventive test on Sphaerotheca fuliginea (powdery mildew on cucurbits); conditions: dose 500 ppm; gherkin plants sprayed 24 h before contamination; grading 12 days after contamination
Experimental: Gherkin plants (“Vert petit de Paris” variety), sown in starter cups on a 50/50 peat soil-pozzolana substrate and grown at 24° C., are treated at the Z11 cotyledon stage by spraying with the active ingredient prepared as described above. Plants, used as controls, are treated with the mixture of acetone/tween/DMSO/water not containing the active material. After 24 hours, the plants are contaminated by spraying the cotyledons with an aqueous suspension of Sphaerotheca fuliginea spores (100 000 spores per ml). The spores are collected from infected plants. The contaminated to gherkin plants are incubated at about 20° C. and at 70-80% relative humidity. Grading (% of efficacy) is carried out 12 days after the contamination, in comparison with the control plants.

[1] = Measurement of log P values by HPLC on reversed phase columns (EEC directive 79/831 Annex V.A8); type: physicochemical; conditions: method marked [a]
Uromyces appendiculatus = test: In vivo preventive test on Uromyces appendiculatus (bean rust); conditions: dose 500 ppm; bean plants sprayed 24 h before contamination; grading 11 days after contamination
Experimental: Bean plants (“Saxa” variety), sown in starter cups on a 50/50 peat soil-pozzolana substrate and grown at 24° C., are treated at the 2-leaf stage (9 cm height) by spraying with the active ingredient prepared as described above. Plants, used as controls, are treated with the mixture of acetone/tween/DMSO/water not containing the active material. After 24 hours, the plants are contaminated by spraying the leaves with an aqueous suspension of Uromyces appendiculatus spores (150 000 spores per ml). […] Grading (% of efficacy) is carried out 11 days after the contamination, in comparison with the control plants.

Puccinia recondita = test: In vivo preventive test on Puccinia recondita (brown rust on wheat); conditions: dose 500 ppm; wheat plants sprayed 24 h before contamination; grading 12 days after contamination
Experimental: Plants, used as controls, are treated with the mixture of acetone/tween/DMSO/water not containing the active material. After 24 hours, the plants are contaminated by spraying the leaves with an aqueous suspension of Puccinia recondita spores (100 000 spores per ml). […] Grading (% of efficacy) is carried out 12 days after the contamination, in comparison with the control plants.

Septoria tritici = test: In vivo preventive test on Septoria tritici (leaf spot on wheat); conditions: dose 500 ppm; wheat plants sprayed 24 h before contamination; grading 24 days after contamination
Experimental: Wheat plants (“Scipion” variety), sown in starter cups on a 50/50 peat soil-pozzolana substrate and grown at 22° C., are treated at the 1-leaf stage (10 cm height) by spraying with the active ingredient prepared as described above. Plants, used as controls, are treated with the mixture of acetone/tween/DMSO/water not containing the active material. After 24 hours, the plants are contaminated by spraying the leaves with an aqueous suspension of cryopreserved Septoria tritici spores (500 000 spores per ml). […] Grading (% of efficacy) is carried out 24 days after the contamination, in comparison with the control plants.

SMILES | logP [1] | Eff. % (Alternaria brassicae) [%] | Eff. % (Pyrenophora teres) [%] | Eff. % (Sphaerotheca fuliginea) [%] | Eff. % (Uromyces appendiculatus) [%] | Eff. % (Puccinia recondita) [%] | Eff. % (Septoria tritici) [%]
CCC1(C)CCc2c(NC(=O)c3c(C(F)F)nn(C)c3Cl)cccc21 (single isomer, unassigned) [Example 53] | 4.04[a] | 79 | 80 | 98 | 100 | 100 | –
CC(C)CC1CCc2c(NC(=O)c3c(C(F)F)nn(C)c3Cl)cccc21 (stereo not drawn) [Example 40] | 4.87[a] | 97 | 80 | – | 100 | 100 | –
CC1CC2(CC2)c2cccc(NC(=S)c3c(C(F)F)nn(C)c3Cl)c21 (stereo not drawn) [Example 49] | 3.85[a] | – | 83 | – | 100 | 94 | 71
CC(C)C1Cc2cccc(NC(=O)c3c(C(F)F)nn(C)c3Cl)c2C1C (stereo not drawn) [Example 48] | 4.49[a] | – | – | 100 | 100 | 100 | 80
CCC1Cc2cccc(NC(=O)c3c(C(F)F)nn(C)c3Cl)c2C1 (stereo not drawn) [Example 30] | 4.01[a] | – | 83 | – | 100 | 100 | 70
CC(C)C1Cc2c(NC(=O)c3c(C(F)F)nn(C)c3Cl)cccc2C1(C)C (stereo not drawn) [Example 6] | 4.95[a] | 78 | – | 100 | 100 | 100 | –
CC(C)C1Cc2cccc(NC(=O)c3c(C(F)F)nn(C)c3Cl)c2C1C (stereo not drawn) [Example 47] | 4.68[a] | – | – | – | 86 | 83 | 80
CC1CC(C)(C)c2c(F)ccc(NC(=O)c3c(C(F)F)nn(C)c3Cl)c21 (stereo not drawn) [Example 37] | 4.11[a] | 97 | 75 | 100 | 100 | – | –
CC(C)C1Cc2cccc(NC(=O)c3c(C(F)F)nn(C)c3Cl)c2C1C (stereo not drawn) [Example 56] | 4.68[a] | – | – | – | 86 | 83 | 80
CCCON=C1CCc2c(NC(=O)c3c(C(F)F)nn(C)c3Cl)cccc21 [Example 23] | 3.76[a] | – | – | 70 | 82 | – | 90
CC1CCc2cccc(NC(=O)c3c(C(F)F)nn(C)c3Cl)c21 (stereo not drawn) [Example 31] | 3.44[a] | – | – | – | 100 | 100 | 80
CCCCON=C1CCc2c(NC(=O)c3c(C(F)F)nn(C)c3F)cccc21 [Example 24] | 3.96[a] | – | – | – | – | – | 80

Continued, in another order:

logP [1] | SMILES | Eff. % (Alternaria brassicae) [%] | Eff. % (Pyrenophora teres) [%] | Eff. % (Sphaerotheca fuliginea) [%] | Eff. % (Uromyces appendiculatus) [%] | Eff. % (Puccinia recondita) [%] | Eff. % (Septoria tritici) [%]
3.67[a] | CCCON=C1CC(C)c2c(NC(=O)c3c(C(F)F)nn(C)c3F)cccc21 (stereo not drawn) [Example 91] | 86 | 83 | – | 100 | 94 | –
4.51[a] | Cn1nc(C(F)F)c(C(=S)Nc2cccc3c2CCC3C(C)(C)C)c1F (stereo not drawn) [Example 75] | – | – | 100 | 100 | 100 | 79
5.08[a] | CC1CC(CC(C)(C)C)c2cccc(NC(=S)c3c(C(F)F)nn(C)c3F)c21 (stereo not drawn) [Example 87] | 75 | – | 98 | 100 | 98 | –
3.18[a] | CCON=C1CC(C)c2c(NC(=O)c3c(C(F)F)nn(C)c3F)cccc21 (stereo not drawn) [Example 83] | 86 | 83 | – | 95 | 88 | –
5.22[a] | CC1CC(CC(C)(C)C)c2cccc(NC(=O)c3c(C(F)F)nn(C)c3Cl)c21 (stereo not drawn) [Example 69] | – | – | 100 | 100 | 98 | 71
3.64[a] | Cn1nc(C(F)F)c(C(=O)Nc2cccc3c2CC(C)(C)C3)c1F [Example 72] | – | – | 100 | 100 | 98 | 71
